Tests used:
Experiment in all cases: relative viability (nuclei count vs DMSO), 5 days (fraction); higher = more cells survive
ChaGo-K-1 = test system: ChaGo-K-1
Procedure, shortened: (§1)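 After 5 days of treatment, lung cancer cells in 1536-well plates were fixed and stained in a single step (final 0.05% Triton X-100, 1% formaldehyde, 1 ug/ml Hoechst) and their nuclei counted on 4× images. Treatment had been applied by pin tool the day after seeding as one drug alone or as a fixed anchor-drug dose with five library-drug doses (not always all listed) in √10 steps. Relative viability is the nuclei count of treated wells divided by that of vehicle wells, and values are medians of duplicate plates.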

NCI-H596 = test system: NCI-H596
Procedure, shortened: as §1

HCC-78 = test system: HCC-78
Procedure, shortened: as §1

NCI-H1944 = test system: NCI-H1944
Procedure, shortened: as §1

NCI-H1793 = test system: NCI-H1793
Procedure, shortened: as §1

NCI-H3122 = test system: NCI-H3122
Procedure, shortened: as §1

NCI-H2126 = test system: NCI-H2126
Procedure, shortened: as §1

LCLC-97TM1 = test system: LCLC-97TM1
Procedure, shortened: as §1

HOP-62 = test system: HOP-62
Procedure, shortened: as §1

NCI-H1395 = test system: NCI-H1395
Procedure, shortened: as §1

NCI-H1666 = test system: NCI-H1666
Procedure, shortened: as §1

PC-14 = test system: PC-14
Procedure, shortened: as §1

LXF-289 = test system: LXF-289
Procedure, shortened: as §1

NCI-H2085 = test system: NCI-H2085
Procedure, shortened: as §1

NCI-H441 = test system: NCI-H441
Procedure, shortened: as §1

HARA = test system: HARA
Procedure, shortened: as §1

EPLC-272H = test system: EPLC-272H
Procedure, shortened: as §1

NCI-H1437 = test system: NCI-H1437
Procedure, shortened: as §1

H3255 = test system: H3255
Procedure, shortened: as §1

NCI-H2087 = test system: NCI-H2087
Procedure, shortened: as §1

Structure (SMILES): Cc1csc(=NC2CCCCC2)n1/N=C/c1ccc(O)c(O)c1O [MIM1] + NC(=O)Nc1cc(-c2cccc(F)c2)sc1C(=O)N[C@H]1CCCNC1 [AZD7762] (partner 0.2 µM)
- relative viability (ChaGo-K-1; first compound 0.2 µM): 0.869
- relative viability (ChaGo-K-1; first compound 0.6325 µM): 0.883
- relative viability (ChaGo-K-1; first compound 2 µM): 0.907
- relative viability (ChaGo-K-1; first compound 6.325 µM): 0.596
- relative viability (ChaGo-K-1; first compound 20 µM): 0.248
- relative viability (NCI-H596; first compound 0.2 µM): 1.17
- relative viability (NCI-H596; first compound 0.6325 µM): 1.22
- relative viability (NCI-H596; first compound 2 µM): 1.03
- relative viability (NCI-H596; first compound 6.325 µM): 1.11
- relative viability (NCI-H596; first compound 20 µM): 0.819
- relative viability (HCC-78; first compound 0.2 µM): 0.548
- relative viability (HCC-78; first compound 2 µM): 0.611
- relative viability (HCC-78; first compound 6.325 µM): 0.507
- relative viability (HCC-78; first compound 20 µM): 0.662
- relative viability (NCI-H1944; first compound 0.2 µM): 0.511
- relative viability (NCI-H1944; first compound 0.6325 µM): 0.479
- relative viability (NCI-H1944; first compound 2 µM): 0.475
- relative viability (NCI-H1944; first compound 6.325 µM): 0.397
- relative viability (NCI-H1944; first compound 20 µM): 0.243
- relative viability (NCI-H1793; first compound 0.2 µM): 0.614
- relative viability (NCI-H1793; first compound 2 µM): 0.412
- relative viability (NCI-H1793; first compound 6.325 µM): 0.424
- relative viability (NCI-H1793; first compound 20 µM): 0.271
- relative viability (NCI-H3122; first compound 0.2 µM): 0.945
- relative viability (NCI-H3122; first compound 0.6325 µM): 0.978
- relative viability (NCI-H3122; first compound 2 µM): 0.973
- relative viability (NCI-H3122; first compound 6.325 µM): 0.472
- relative viability (NCI-H3122; first compound 20 µM): 0.19
- relative viability (NCI-H2126; first compound 0.2 µM): 0.934
- relative viability (NCI-H2126; first compound 0.6325 µM): 0.985
- relative viability (NCI-H2126; first compound 2 µM): 1.07
- relative viability (NCI-H2126; first compound 6.325 µM): 0.913
- relative viability (NCI-H2126; first compound 20 µM): 0.786
- relative viability (LCLC-97TM1; first compound 0.2 µM): 0.231
- relative viability (LCLC-97TM1; first compound 0.6325 µM): 0.243
- relative viability (LCLC-97TM1; first compound 2 µM): 0.196
- relative viability (LCLC-97TM1; first compound 6.325 µM): 0.145
- relative viability (LCLC-97TM1; first compound 20 µM): 0.0668
- relative viability (HOP-62; first compound 0.2 µM): 0.557
- relative viability (HOP-62; first compound 0.6325 µM): 0.662
- relative viability (HOP-62; first compound 2 µM): 0.756
- relative viability (HOP-62; first compound 6.325 µM): 0.506
- relative viability (HOP-62; first compound 20 µM): 0.0832
- relative viability (NCI-H1395; first compound 0.2 µM): 0.416
- relative viability (NCI-H1395; first compound 0.6325 µM): 0.409
- relative viability (NCI-H1395; first compound 2 µM): 0.338
- relative viability (NCI-H1395; first compound 6.325 µM): 0.387
- relative viability (NCI-H1395; first compound 20 µM): 0.337
- relative viability (NCI-H1666; first compound 0.2 µM): 0.862
- relative viability (NCI-H1666; first compound 0.6325 µM): 0.789
- relative viability (NCI-H1666; first compound 2 µM): 0.829
- relative viability (NCI-H1666; first compound 6.325 µM): 0.7
- relative viability (NCI-H1666; first compound 20 µM): 0.519
- relative viability (PC-14; first compound 0.2 µM): 0.353
- relative viability (PC-14; first compound 0.6325 µM): 0.244
- relative viability (PC-14; first compound 2 µM): 0.288
- relative viability (PC-14; first compound 6.325 µM): 0.311
- relative viability (PC-14; first compound 20 µM): 0.111
- relative viability (LXF-289; first compound 0.2 µM): 1.07
- relative viability (LXF-289; first compound 0.6325 µM): 0.905
- relative viability (LXF-289; first compound 2 µM): 1.12
- relative viability (LXF-289; first compound 6.325 µM): 0.85
- relative viability (LXF-289; first compound 20 µM): 0.378
- relative viability (NCI-H2085; first compound 0.2 µM): 1
- relative viability (NCI-H2085; first compound 0.6325 µM): 0.963
- relative viability (NCI-H2085; first compound 2 µM): 1.07
- relative viability (NCI-H2085; first compound 6.325 µM): 0.766
- relative viability (NCI-H2085; first compound 20 µM): 0.775
- relative viability (NCI-H441; first compound 0.2 µM): 1.16
- relative viability (NCI-H441; first compound 0.6325 µM): 1.09
- relative viability (NCI-H441; first compound 2 µM): 1.17
- relative viability (NCI-H441; first compound 6.325 µM): 0.674
- relative viability (NCI-H441; first compound 20 µM): 0.386
- relative viability (HARA; first compound 0.2 µM): 0.345
- relative viability (HARA; first compound 0.6325 µM): 0.412
- relative viability (HARA; first compound 2 µM): 0.189
- relative viability (HARA; first compound 6.325 µM): 0.219
- relative viability (HARA; first compound 20 µM): 0.148
- relative viability (EPLC-272H; first compound 0.2 µM): 0.224
- relative viability (EPLC-272H; first compound 0.6325 µM): 0.305
- relative viability (EPLC-272H; first compound 2 µM): 0.208
- relative viability (EPLC-272H; first compound 6.325 µM): 0.245
- relative viability (EPLC-272H; first compound 20 µM): 0.106
- relative viability (NCI-H1437; first compound 0.2 µM): 1.02
- relative viability (NCI-H1437; first compound 0.6325 µM): 1.12
- relative viability (NCI-H1437; first compound 2 µM): 1.18
- relative viability (NCI-H1437; first compound 6.325 µM): 0.916
- relative viability (NCI-H1437; first compound 20 µM): 0.666
- relative viability (H3255; first compound 0.2 µM): 0.863
- relative viability (H3255; first compound 0.6325 µM): 0.85
- relative viability (H3255; first compound 2 µM): 0.783
- relative viability (H3255; first compound 6.325 µM): 0.571
- relative viability (H3255; first compound 20 µM): 0.371
- relative viability (NCI-H2087; first compound 0.2 µM): 1.31
- relative viability (NCI-H2087; first compound 0.6325 µM): 1.29
- relative viability (NCI-H2087; first compound 2 µM): 1.45
- relative viability (NCI-H2087; first compound 6.325 µM): 0.87
- relative viability (NCI-H2087; first compound 20 µM): 1.05
